{"source": "patent US7387880B2", "about": "“Method for monitoring resting and activated platelets in unfixed blood samples” (PPD Biomarker Discovery Sciences, LLC, priority 2000, dated 2008)", "key": {"CD62P on platelets [1]": {"test_system": "CD62P on platelets", "assay": "Platelet stimulation, CD62P expression by MLSC", "format": "cell-based, human", "procedure": "Platelet stimulation. Thrombin stimulation was carried out on either washed platelets or 1:10 diluted whole blood in the presence of the fibrinogen cascade inhibitor peptide glycine-proline-arginine-proline (GPRP, 2 mM final concentration). Thrombin (5 U/ml) was added to 10 μl of sample in 75 μl Tyrode's buffer containing the GPRP (final total volume of 100 μl). Because the CTAD tubes contain reversible inhibitors of platelet activation, it was initially determined that a 10-fold dilution of the whole blood was sufficient to reduce the inhibitors below effective concentration and permit stimulation. […] Next, the reaction was incubated in a 37° C. water bath for 5 or 10 minutes and subsequently diluted to 1000 μl […] with Tyrode's buffer supplemented with 1.5 mM theophylline and 0.37 mM adenosine (final concentration). […]\nStaining for MLSC. […] Twenty-one microliters of diluted sample was loaded into Flex32 capillary array and analyzed by Surroscan MLSC. […] Images were converted to flow cytometry standard (fcs) format with in-house software and analyzed with FlowJo™ cytometry analysis software (Tree Star, Inc., San Carlos, Calif.). Fluorescence intensities are compensated for spectral overlap of the dyes. […]"}, "CD62P on platelets [2]": {"test_system": "CD62P on platelets", "assay": "CD62P activation marker on platelets in unfixed whole blood drawn into EDTA or CTAD tubes, MLSC", "format": "cell-based, human", "details": "for Mean Intensity CD62P: mean relative intensity, entire platelet population", "procedure": "(§1) Staining for MLSC. For whole blood platelet stains, 10 μl of whole blood was diluted into 990 μl of Tyrode's buffer supplemented with 1.5 mM theophylline and 0.37 mM adenosine for a final dilution of 1:100. Twenty microliters of diluted whole blood, thrombin-stimulated samples, or control samples were added to 96 well micro-titer plates containing 5 μl of the appropriate reagent cocktail. The cells were incubated in the dark at room temperature for 20 minutes. At the end of the incubation, 50 μl of modified PBS/BSA buffer supplemented with theophylline (1.5 mM)/adenosine (0.37 mM) (to prevent activation), and Zwittergent (50 mM) was added to all the wells and mixed thoroughly. Twenty-one microliters of diluted sample was loaded into Flex32 capillary array and analyzed by Surroscan MLSC. The assays are performed in homogeneous mode, without removal of unbound reagent. After all dilutions, the fluorescent platelet counts per capillary are about 1,000-2,000, comfortably in the range of 10 to 12,000 that is appropriate for the cytometry. This platelet count level provides appropriate counting statistics and avoids coincident events. Images were converted to flow cytometry standard (fcs) format with in-house software and analyzed with FlowJo™ cytometry analysis software (Tree Star, Inc., San Carlos, Calif.). Fluorescence intensities are compensated for spectral overlap of the dyes.\n(§2) Previous research has shown that addition of platelet inhibitors to the anti-coagulant greatly reduces the activation state of human platelets prior to testing. Kuhne et al., Am. J. Hematol. 50:40-5 (1995); Mody et al., Transfus.Med. 9:147-54 (1999). […] Blood was obtained from a volunteer (set of 5 volunteers) and processed within 4 hours. This was done without fixation in order to maintain epitope integrity and allow for further activation studies. The samples were incubated with antibodies against platelet surface activation markers CD62P and CD63, as well as antibodies against GPIIIA, an antigen present on all platelets. All platelets were identified with GPIIIa (Cy5.5). The sample was then analyzed using MLSC. Gates for the Cy5-CD62P and Cy5-CD63 positive events were drawn based upon MOPC-21 control antibody staining."}, "CD63 on platelets [3]": {"test_system": "CD63 on platelets", "assay": "CD63 activation marker on platelets in unfixed whole blood drawn into EDTA or CTAD tubes, MLSC", "format": "cell-based, human", "details": "for Mean Intensity CD63: mean relative intensity, entire platelet population", "procedure": "as §1, §2"}, "platelets [4]": {"test_system": "platelets", "assay": "Pan platelet surface antigen expression (CD9, GPIIIA, GPIIB), EDTA versus CTAD samples, MLSC", "format": "cell-based, human", "procedure": "as §1, with “After all dilutions, the fluorescent platelet counts per capillary are about 1,000-2,000, comfortably in the range of 10 to 12,000 that is appropriate for the cytometry. This platelet count level provides appropriate counting statistics and avoids coincident events.” left out\n(§3) Previous research has shown that addition of platelet inhibitors to the anti-coagulant greatly reduces the activation state of human platelets prior to testing. […] The sample was then analyzed using MLSC. […]"}, "platelets [5]": {"test_system": "platelets", "assay": "Total platelet count in EDTA and CTAD tubes, MLSC", "format": "cell-based, human", "details": "in the tubes", "procedure": "as §1, with “After all dilutions, the fluorescent platelet counts per capillary are about 1,000-2,000, comfortably in the range of 10 to 12,000 that is appropriate for the cytometry. This platelet count level provides appropriate counting statistics and avoids coincident events.” left out\nas §3"}, "platelet factor 4 (PF4)": {"test_system": "platelet factor 4 (PF4)", "assay": "Platelet factor 4 in plasma by chemiluminescent ELISA", "design": "species or system human", "method": "Platelet Factor 4 was measured by chemiluminescent using ELISA. Antibodies were obtained from U.S. Biologicals (Swampscott, Mass.) and Affinity Biologicals Enzyme Research Lab. (Southbend, Ind.), recombinant standard from Chemicon (Temecula, Calif.). Briefly, Corning black opaque 96 well microtiter plates were coated with rabbit polyclonal anti-PF4 (human) overnight at 4° C. Plates were washed and samples or standards were added to the wells and allowed to incubate at room temperature. After washing, biotinylated polyclonal sheep anti-PF4 (human) was added followed by washing and the addition of avidin-alkaline Phosphatase. Plates were washed and the CDP-Star R (Tropix, Bedford, Mass.)) substrate added, allowed to develop and read on the Wallac Victor plate reader. The assay sensitivity of the assay is 20 pg/ml.\nPF4 expression was determined by ELISA (sensitivity of 20 pg/ml)."}, "CD63 on platelets [6]": {"test_system": "CD63 on platelets", "assay": "Platelet stimulation, CD63 expression by MLSC", "format": "cell-based, human", "procedure": "Platelet stimulation. Thrombin stimulation was carried out on either washed platelets or 1:10 diluted whole blood in the presence of the fibrinogen cascade inhibitor peptide glycine-proline-arginine-proline (GPRP, 2 mM final concentration). Thrombin (5 U/ml) was added to 10 μl of sample in 75 μl Tyrode's buffer containing the GPRP (final total volume of 100 μl). Because the CTAD tubes contain reversible inhibitors of platelet activation, it was initially determined that a 10-fold dilution of the whole blood was sufficient to reduce the inhibitors below effective concentration and permit stimulation. […] Next, the reaction was incubated in a 37° C. water bath for 5 or 10 minutes and subsequently diluted to 1000 μl […] with Tyrode's buffer supplemented with 1.5 mM theophylline and 0.37 mM adenosine (final concentration). In order to stop the stimulation and prevent non-specific activation of the control and test samples caused by the handling and staining techniques, theophylline and adenosine were added to the samples. A control sample lacking only the thrombin was run in parallel.\nStaining for MLSC. For whole blood platelet stains, 10 μl of whole blood was diluted into 990 μl of Tyrode's buffer supplemented with 1.5 mM theophylline and 0.37 mM adenosine for a final dilution of 1:100. Twenty microliters of diluted whole blood, thrombin-stimulated samples, or control samples were added to 96 well micro-titer plates containing 5 μl of the appropriate reagent cocktail. The cells were incubated in the dark at room temperature for 20 minutes. […] Twenty-one microliters of diluted sample was loaded into Flex32 capillary array and analyzed by Surroscan MLSC. […] Images were converted to flow cytometry standard (fcs) format with in-house software and analyzed with FlowJo™ cytometry analysis software (Tree Star, Inc., San Carlos, Calif.). Fluorescence intensities are compensated for spectral overlap of the dyes. […]"}, "CD62P on platelets [7]": {"test_system": "CD62P on platelets", "details": "thrombin; expected value; cited from earlier work"}, "CD63 on platelets [8]": {"test_system": "CD63 on platelets", "details": "thrombin; expected value; cited from earlier work"}, "[9]": {"details": "24 hr from draw, average of 4 measurements"}, "[10]": {"details": "48 hr from draw, average of 5 subjects"}, "[11]": {"details": "thrombin 5 U/ml, 5 minute activation, whole blood 1:10 with GPRP, average of 19 to 22 subjects"}}, "data": [{"molecule": "Nc1ncnc2c1ncn2[C@@H]1O[C@H](COP(=O)(O)OP(=O)(O)O)[C@@H](O)[C@H]1O", "note": "[ADP, adenosine diphosphate]", "values": [{"measurement": "platelets expressing CD62P", "setting": "CD62P on platelets [1]; 30-minute stimulation with ADP", "value": "greater than 60%"}]}, {"molecule": "O=C(O)CN(CCN(CC(=O)O)CC(=O)O)CC(=O)O", "note": "[EDTA, Ethylene-diamino-tetra-acetic acid]", "values": [{"measurement": "% Positive CD62P", "setting": "CD62P on platelets [2]; [9]", "value": "49 ± 20", "unit": "%"}, {"measurement": "Mean Intensity CD62P", "setting": "CD62P on platelets [2]; 24 hr from draw", "value": "910 ± 130"}, {"measurement": "% Positive CD62P", "setting": "CD62P on platelets [2]; [10]", "value": "41 ± 4.8", "unit": "%"}, {"measurement": "Mean Intensity CD62P", "setting": "CD62P on platelets [2]; 48 hr from draw", "value": "900 ± 60"}, {"measurement": "Mean Intensity CD62P", "setting": "CD62P on platelets [2]; <4 hr from draw", "value": "1110 ± 230"}, {"measurement": "% Positive CD62P", "setting": "CD62P on platelets [2]; <4 hr from draw, platelets identified with GPIIIA, average of 5 subjects", "value": "37 ± 17", "unit": "%"}, {"measurement": "range of platelet activation levels observed", "setting": "CD62P on platelets [2]; EDTA samples, all time points", "value": "8 to 50", "unit": "%"}, {"measurement": "platelets positive for CD62P", "setting": "CD62P on platelets [2]; matched samples analyzed over 48 hours", "value": "40-50%"}, {"measurement": "% Positive CD63", "setting": "CD63 on platelets [3]; [9]", "value": "37 ± 22", "unit": "%"}, {"measurement": "Mean Intensity CD63", "setting": "CD63 on platelets [3]; 24 hr from draw", "value": "690 ± 77"}, {"measurement": "% Positive CD63", "setting": "CD63 on platelets [3]; [10]", "value": "15 ± 7.0", "unit": "%"}, {"measurement": "Mean Intensity CD63", "setting": "CD63 on platelets [3]; 48 hr from draw", "value": "680 ± 42"}, {"measurement": "% Positive CD63", "setting": "CD63 on platelets [3]; <4 hr from draw, average of 5 subjects", "value": "22 ± 20", "unit": "%"}, {"measurement": "Mean Intensity CD63", "setting": "CD63 on platelets [3]; <4 hr from draw", "value": "760 ± 43"}, {"measurement": "mean fluorescence intensity of GPIIB, lower in EDTA compared to CTAD", "setting": "platelets [4]; EDTA relative to CTAD", "value": "about 40%"}, {"measurement": "differences in expression of pan surface antigens CD9 or GPIIIA on platelets", "setting": "platelets [4]; between EDTA and CTAD samples", "value": "no observable differences"}, {"measurement": "change in total platelet count from 4 to 48 hours", "setting": "platelets [5]", "value": "small but significant decrease"}, {"measurement": "PF4 release, times greater in EDTA than in CTAD samples", "setting": "platelet factor 4 (PF4); EDTA relative to CTAD, p<0.05", "value": 5, "unit": "times"}, {"measurement": "PF4 in plasma", "setting": "platelet factor 4 (PF4); average of 5 individuals, matched EDTA and CTAD draws", "value": "627 ± 449", "unit": "pg/mL"}]}, {"molecule": "thrombin", "values": [{"measurement": "Observed CD62P positive platelets", "setting": "CD62P on platelets [1]; [11]", "value": "192,000 ± 53,000 platelets/μl"}, {"measurement": "expression level of CD63 on platelets after stimulation", "setting": "CD63 on platelets [6]; five minute stimulation with thrombin", "value": "greatly increased"}, {"measurement": "Observed CD63 positive platelets", "setting": "CD63 on platelets [6]; [11]", "value": "142,000 ± 40,000 platelets/μl"}, {"measurement": "% of total platelets expressing CD63", "setting": "CD63 on platelets [6]; thrombin activation (5 U/ml, 5 minute), CTAD whole blood", "value": "72 ± 8.2", "unit": "%"}, {"measurement": "Expected % CD62P positive", "setting": "CD62P on platelets [7]", "value": ">95", "unit": "%"}, {"measurement": "Expected % CD63 positive", "setting": "CD63 on platelets [8]", "value": ">80", "unit": "%"}]}]}
